# Source: patent US20250186425A1, “PPARG INVERSE AGONISTS AND USES THEREOF” (Flare Therapeutics Inc., priority 2022, published 2025)
# pEC50: −log10 of the molar value.
# Key:
# [1] = biological target: T1, PPARG/RXRA LBD heterodimer (Homo sapiens (Human), UniProt P37231); assay: PPARG-MED1 blockade assay (TR-FRET); type: biochemical; conditions: for pEC50: TR-FRET, biotinylated MED1 LxxLL peptide, 80 nM Rosiglitazone, 3 hours, IC50; for % MED1 blockade relative to GW9662: maximal extent, GW9662 defined as 100%, DMSO 0%
# T1 sequence (P37231 whole entry, looked up, the tested form may be a part): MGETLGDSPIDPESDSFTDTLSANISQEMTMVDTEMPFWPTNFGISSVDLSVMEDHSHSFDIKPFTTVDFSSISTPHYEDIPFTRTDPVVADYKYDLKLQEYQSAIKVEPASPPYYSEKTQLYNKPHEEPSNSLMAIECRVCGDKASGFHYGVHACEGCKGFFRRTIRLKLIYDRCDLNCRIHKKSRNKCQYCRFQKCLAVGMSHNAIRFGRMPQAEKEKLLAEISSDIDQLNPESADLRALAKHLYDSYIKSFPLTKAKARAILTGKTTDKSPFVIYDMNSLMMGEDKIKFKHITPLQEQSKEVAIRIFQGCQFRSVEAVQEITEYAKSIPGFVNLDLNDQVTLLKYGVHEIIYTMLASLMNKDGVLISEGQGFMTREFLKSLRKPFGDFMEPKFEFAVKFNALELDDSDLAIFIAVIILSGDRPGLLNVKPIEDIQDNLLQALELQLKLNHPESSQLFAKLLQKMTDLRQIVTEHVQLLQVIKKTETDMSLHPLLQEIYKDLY
# T1 sequence (P19793 whole entry partner, looked up, the tested form may be a part): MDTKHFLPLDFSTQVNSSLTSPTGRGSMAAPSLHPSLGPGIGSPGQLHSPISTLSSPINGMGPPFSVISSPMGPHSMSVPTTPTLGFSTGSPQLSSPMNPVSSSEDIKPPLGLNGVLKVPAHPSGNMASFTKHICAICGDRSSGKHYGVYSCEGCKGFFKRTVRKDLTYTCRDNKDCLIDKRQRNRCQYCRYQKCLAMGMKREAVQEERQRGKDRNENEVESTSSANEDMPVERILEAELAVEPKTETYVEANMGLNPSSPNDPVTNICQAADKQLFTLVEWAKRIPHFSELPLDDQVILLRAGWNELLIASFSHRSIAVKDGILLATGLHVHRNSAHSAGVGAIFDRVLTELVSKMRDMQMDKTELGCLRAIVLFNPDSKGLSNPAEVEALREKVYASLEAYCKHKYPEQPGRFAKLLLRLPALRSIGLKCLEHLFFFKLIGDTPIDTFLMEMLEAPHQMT
# Method: Compound potency (IC50) and maximal extent of MED1 repulsion to PPARG were assessed a TR-FRET binding assay measuring association of a biotinylated MED1 LxxLL peptide (Biotin-[…]-amide) to PPARG/RXRA LBD heterodimer. Specifically, a 20 microliters of TR-FRET master mix consisting of 2 nM WT PPARG LBD (e. coli expressed, His-TEV-Q203-Y477; Uniprot ID P37231-2), 2 nM WT RXRA LBD (e. coli expressed, Flag-TEV-E228-T462; […]. Mixtures were incubated for 3 hours and read in an EnVision plate reader (Perkin Elmer) with Ex/Em 615/665. To determine the potency (IC50) and extent of MED1 repulsion, TR-FRET ratios were normalized to the average ratio of DMSO control wells (0%) and to the average minimum ratio for positive control compound (GW9662 (2-chloro-5-nitrobenzanilide); defined as 100%) in CDD Vault and analyzed using the Levenberg-Marquardt algorithm.
# [2] = tested on: HT1197 (RXRA S427F mutation) cells; assay: Bladder cancer pharmacodynamic assay, HT1197 cell assay (qPCR of PPARG target gene ANGPTL4); type: cell-based; conditions: Homo sapiens; for inhibition at 0.1 µM: 100 nM compound, 24 hours, relative to DMSO control; for pEC50: 24 hours treatment, qPCR
# Method: 5637 (PPARG amplified) and HT1197 (RXRA S427F mutation) cells were used for assessment of modulation of PPARG target genes using quantitative PCR. Cells were treated for 24 hours with PPARG inverse agonists prior to analysis of FABP4 (IDT, Cat: Hs.PT 58.20106818) and ANGPTL4 (IDT, Cat: Hs.PT 58.25480012) expression, with expression of the housekeeping gene TBP (IDT, Cat: Hs.PT 58v.39858774) used to normalize expression across samples. Quantitative PCR was performed using an ABI QuantStudio 7 Flex Reaction system. Data were analyzed and reported relative to DMSO control using the comparative Ct method […].
# [3] = biological target: T1, PPARG/RXRA LBD heterodimer; assay: PPARG-NCOR1 recruitment assay (TR-FRET); type: biochemical; conditions: for pEC50: TR-FRET, biotinylated NCOR1 ID2 peptide, 80 nM Rosiglitazone, 3 hours, read-out: PPARG-NCOR recruitment assay EC50; for % NCOR recruitment relative to T907: maximal extent, T0070907 defined as 100%, DMSO 0%
# Method: Compound potency (EC50) and maximal extent of NCOR1 recruitment to PPARG were assessed a TR-FRET binding assay measuring association of a biotinylated NCOR1 ID2 peptide (Biotin-[…]-amide) to PPARG/RXRA LBD heterodimer. Specifically, a 20 microliters of TR-FRET master mix consisting of 2 nM WT PPARG LBD (e. coli expressed, His-TEV-Q203-Y477; Uniprot ID P37231-2), 2 nM WT RXRA LBD or mutant S427F RXRA LBD (e. coli expressed, Flag-TEV-E228-T462; […]. Mixtures were incubated for 3 hours and read in an EnVision plate reader (Perkin Elmer) with Ex/Em 615/665. To determine the potency (EC50) and extent of NCOR1 recruitment, TR-FRET ratios were normalized to the average ratio of DMSO control wells (0%) and to the average maximum ratio for positive control compound (T0070907 (2-chloro-5-nitro-N-4-pyridinyl-benzamide); defined as 100%) in CDD Vault and analyzed using the Levenberg-Marquardt algorithm.
Compound,pEC50 [1],% MED1 blockade relative to GW9662 [1],inhibition at 0.1 µM [2],pEC50 [2],pEC50 [3],% NCOR recruitment relative to T907 [3]
"CS(=O)(=O)c1ccc(C#N)cc1-c1cc(=O)c2c(Oc3ccc(Cl)cc3)cc(F)cc2[nH]1 [Example 1, 3-(5-(4-Chlorophenoxy)-7-Fluoro-4-Oxo-1,4-Dihydroquinolin-2-Yl)-4-(Methylsulfonyl)Benzonitrile]",6.00 to 7.00,"A (A: >100% (>the control compound, GW9662))",85%,9.10,6.00 to 7.00,"A (A: >100% (>the control compound, T907))"
"N#Cc1ccc(Cl)c(-c2cc(=O)c3c(Oc4ccc(Cl)cc4)cc(F)cc3[nH]2)c1 [Example 2, 4-Chloro-3-(5-(4-Chlorophenoxy)-7-Fluoro-4-Oxo-1,4-Dihydroquinolin-2-Yl)Benzonitrile]",6.00 to 7.00,"B (B: <100% (<the control compound, GW9662))",91%,–,6.00 to 7.00,"A (A: >100% (>the control compound, T907))"
"Cn1cc(Oc2cc(F)cc3[nH]c(-c4cc(C#N)ccc4S(C)(=O)=O)cc(=O)c23)cn1 [Example 3, 3-(7-Fluoro-5-((1-Methyl-1H-Pyrazol-4-Yl)Oxy)-4-Oxo-1,4-Dihydroquinolin-2-Yl)-4-(Methylsulfonyl)Benzonitrile]",5.00 to 6.00,"A (A: >100% (>the control compound, GW9662))",82%,–,5.00 to 6.00,"A (A: >100% (>the control compound, T907))"
"Cn1cc(Oc2cc(Cl)cc3[nH]c(-c4cc(C#N)ccc4S(C)(=O)=O)cc(=O)c23)cn1 [Example 4, 3-(7-Chloro-5-((1-Methyl-1H-Pyrazol-4-Yl)Oxy)-4-Oxo-1,4-Dihydroquinolin-2-Yl)-4-(Methylsulfonyl)Benzonitrile]",6.00 to 7.00,"A (A: >100% (>the control compound, GW9662))",86%,9.46,6.00 to 7.00,"A (A: >100% (>the control compound, T907))"
"N#Cc1ccc(Cl)c(-c2cc(=O)c3c(Oc4ccc(Cl)nc4)cc(F)cc3[nH]2)c1 [Example 5, 4-Chloro-3-(5-((6-Chloropyridin-3-Yl)Oxy)-7-Fluoro-4-Oxo-1,4-Dihydroquinolin-2-Yl)Benzonitrile]",6.00 to 7.00,"A (A: >100% (>the control compound, GW9662))",77%,–,6.00 to 7.00,"A (A: >100% (>the control compound, T907))"
"N#Cc1ccc(Cl)c(-c2cc(=O)c3c(OCc4ccc(Cl)cc4)cc(F)cc3[nH]2)c1 [Example 6, 4-Chloro-3-(5-((4-Chlorobenzyl)Oxy)-7-Fluoro-4-Oxo-1,4-Dihydroquinolin-2-Yl)Benzonitrile]",6.00 to 7.00,"A (A: >100% (>the control compound, GW9662))",25%,–,6.00 to 7.00,"A (A: >100% (>the control compound, T907))"
"CS(=O)(=O)c1ccc(C#N)cc1-c1cc(=O)c2c(Cc3ccc(Cl)cc3)cc(F)cc2[nH]1 [Example 7, 3-(5-(4-Chlorobenzyl)-7-Fluoro-4-Oxo-1,4-Dihydroquinolin-2-Yl)-4-(Methylsulfonyl)Benzonitrile]",6.00 to 7.00,"A (A: >100% (>the control compound, GW9662))",90%,–,7.00 to 8.00,"A (A: >100% (>the control compound, T907))"
